The values that follow are results of earlier work, collected in patent US20120142730A1 (priority 2010, published 2012).

For this data set the following is noted: Noseworthy, 2000; cited from earlier work.

Molecules are shown by their SMILES.

Take `CN(C(=O)c1c(O)c2ccccc2n(C)c1=O)c1ccccc1` [roquinimex]: the “Safety concerns previously seen” value was “serositis, cardiovascular events and thrombosis”.
